Experiment [1] concerns Ba/F3 cells (IL-3 dependent murine pro-B cell line). Nature of the experiment: Proliferation assay (MTT), parental Ba/F3 cells. In kind it is cell-based. The note with it: Mus musculus, 48 h, drug concentrations 0.005-10 μM, read-out: BaF3. As for the experimental part:
Interleukin-3 (IL-3) dependent murine pro-B cell line, Ba/F3, and murine myeloid precursor cell line, 32D, were maintained in RPMI-1640 medium supplemented with L-Glutamine, 10% FBS and 10 U/ml recombinant murine IL-3 (Roche). Mo7e human megakarioblastic cell line was grown in RPMI-1640 medium supplemented with L-Glutamine, 20% FBS and 5 ng/ml recombinant human granulocyte macrophage cell stimulating factor (GM-CSF) (R&D Systems) or 200 ng/ml stem cell factor (SCF) (Biosource).
(§1) Cells (0.3-0.6×10^6/ml) were plated in duplicate or triplicate in 96-well plates containing increasing drug concentrations (0.005-10 μM). After incubation at 37° C. in 5% CO2 for 48 h, the effect of the compounds on cell viability was determined by MTT (Promega) colorimetric dye reduction method. Inhibition of cell proliferation was calculated as a percentage of growth of DMSO treated cells, and IC50 values were determined with Microsoft Excel XLfit3.

Experiment [2] concerns the target Bcr-abl T315I (Ba/F3.p210^T315I cells) (Homo sapiens, UniProt P00519, T315I, cells depend on it). Nature of the experiment: Proliferation assay (MTT), T315I mutant Bcr-abl expressing Ba/F3 cells. In kind it is cell-based, murine. The note with it: 48 h, drug concentrations 0.005-10 μM.
Source text: (§2) Wild type Bcr-abl expressing 32D (32D.p210) and Ba/F3 (Ba/F3.p210) cells, and mutant Bcr-abl expressing cell lines Ba/F3.p210^G250E, Ba/F3.p210^E255V, Ba/F3.p210^T315I, Ba/F3.p210^F317L and Ba/F3.p210^M351T, as well as Ba/F3 cells transformed with Flt-3-ITD kinase. Additional assays included Ba/F3 cells expressing the fusion protein kinases TEL-PDGFRβ, TEL-JAK1, NPM-ALK, TEL-cKit, Tel-Bmx, Tel-FGR3, Tel-Lck and Ba/F3.TPR-met cells. All the above cell lines were maintained in RPMI-1640 medium with L-Glutamine, 10% FBS and 1 mg/ml geneticin (Gibco).
as §1

Experiment [3] addresses Bcr-abl (Ba/F3.p210 cells) (Homo sapiens, UniProt P00519). The experiment can be described thus: Proliferation assay (MTT), wild type Bcr-abl expressing Ba/F3 cells. Type of experiment: cell-based, murine. The note with it: 48 h, drug concentrations 0.005-10 μM.
Source text: as §2, §1

For the compound `Cn1c(C(N)=O)cc2c(Nc3ccc(OC(F)(F)F)cc3)ncnc21`, the results for the IC50 in experiment [1], in experiment [2] and in experiment [3] were more than 10 µM, more than 10 µM and 0.62 µM, respectively.

As to `FC(F)(F)Oc1ccc(Nc2ncnc3[nH]ccc23)cc1`, the IC50 in experiment [1], in experiment [2] and in experiment [3] was more than 10 µM each time.

Turning to `CCOC(=O)C1CCCN(C(=O)c2ccc3c(Nc4ccc(OC(F)(F)F)cc4)ncnc3c2)C1` (centres unmarked), the IC50 is 8.84 µM in experiment [1], more than 10 µM in experiment [2] and 5.55 µM in experiment [3].

As for `O=C(c1ccc2c(Nc3ccc(OC(F)(F)F)cc3)ncnc2c1)N1CCCC1CO` (centres unmarked), the IC50 in experiment [1] was more than 10 µM; in experiment [2], more than 10 µM; in experiment [3] it was 1.65 µM.

For the compound `Cn1c(C(=O)N2CCC(C(N)=O)CC2)cc2c(Nc3ccc(OC(F)(F)F)cc3)ncnc21`, the IC50 was more than 10 µM in experiment [1], more than 10 µM in experiment [2] and 0.82 µM in experiment [3].

On to `O=C(NCCO)c1ccc2c(Nc3ccc(OC(F)(F)F)cc3)ncnc2c1`, for which the IC50 was more than 10 µM in experiment [1], more than 10 µM in experiment [2] and 2.15 µM in experiment [3].

On to `NC(=O)C1CCCN(C(=O)c2ccc3c(Nc4ccc(OC(F)(F)F)cc4)ncnc3c2)C1` (centres unmarked), for which the IC50 in experiment [1] is more than 10 µM; in experiment [2] it was more than 10 µM; in experiment [3], 3.09 µM.

With `CC(C)(C)S(=O)(=O)NC(=O)c1ccc2c(Nc3ccc(OC(F)(F)F)cc3)ncnc2c1`, the IC50 in experiment [1], in experiment [2] and in experiment [3] was more than 10 µM throughout.

Consider `Cn1c(CO)cc2c(Nc3ccc(OC(F)(F)F)cc3)ncnc21`, for which the IC50 in experiment [1] was more than 10 µM; in experiment [2] it was more than 10 µM; in experiment [3], 0.245 µM.

For the compound `CC1CN(C(=O)c2ccc3c(Nc4ccc(OC(F)(F)F)cc4)ncnc3c2)CC(C)N1` (centres unmarked), the values for the IC50 in experiment [1], in experiment [2] and in experiment [3] were 7.62 µM, more than 10 µM and 2.14 µM, respectively.

In the case of `CCN(CC)Cc1ccc2c(Nc3ccc(OC(F)(F)F)cc3)ncnc2c1`, the IC50 in experiment [1] was more than 10 µM; in experiment [2], more than 10 µM; in experiment [3], 2.04 µM.

As for `CCNNC(=O)c1ccc2c(Nc3ccc(OC(F)(F)F)cc3)ncnc2c1`, the IC50 in experiment [1] came to 6.51 µM; in experiment [2], 6.3 µM; in experiment [3] it was 1.88 µM.

As to `Cn1c(C(=O)N2CCCC(C(N)=O)C2)cc2c(Nc3ccc(OC(F)(F)F)cc3)ncnc21` (centres unmarked), the IC50 in experiment [1] was more than 10 µM; in experiment [2], more than 10 µM; in experiment [3], 1.98 µM.

Take `CN1CCC(N(C)C(=O)c2ccc3c(Nc4ccc(OC(F)(F)F)cc4)ncnc3c2)CC1`: the results for the IC50 in experiment [1], in experiment [2] and in experiment [3] were 5.99 µM, 5 µM and 0.689 µM, respectively.

On to `FC(F)(F)Oc1ccc(Nc2ncnc3c2ccn3CCN2CCOCC2)cc1`, for which the IC50 in experiment [1] was more than 10 µM; in experiment [2] it was 4.27 µM; in experiment [3], 0.38 µM.

Consider `CCOC(=O)c1cc2c(Nc3ccc(OC(F)(F)F)cc3)ncnc2n1C`, for which the IC50 in experiment [1] was more than 10 µM; in experiment [2], more than 10 µM; in experiment [3], 1.5 µM.

As for `CN(C)C1CCN(Cc2cc3c(Nc4ccc(OC(F)(F)F)cc4)ncnc3s2)C1` (centres unmarked), the IC50 in experiment [1] and in experiment [2] was more than 10 µM each time.

In the case of `CCCC(C)S(=O)(=O)Nc1ccc(-c2cc(Nc3ccc(OC(F)(F)F)cc3)ncn2)cc1` (centres unmarked), the IC50 in experiment [1] is 3.8 µM; in experiment [2] it was 1.66 µM.

`FC(F)(F)Oc1ccc(Nc2ncnc(NCCN3CCOCC3)c2Br)cc1`: the IC50 in experiment [1] and in experiment [2] was more than 10 µM throughout.

Consider `Cc1ccc(NC(=O)c2ccccc2)cc1Nc1nccn1-c1cc(Nc2ccc(OC(F)(F)F)cc2)ncn1`, for which the IC50 in experiment [1] and in experiment [2] was more than 10 µM throughout.

As to `FC(F)(F)Oc1ccc(Nc2cc(-c3cc(Nc4ccc(OC(F)(F)F)cc4)ncn3)ncn2)cc1`, the figures for the IC50 in experiment [1] and in experiment [2] were more than 10 µM and 7 µM, respectively.

Turning to `CC(=O)Nc1cccc(-c2ncnc(Nc3ccc(OC(F)(F)F)cc3)c2C)c1`, the IC50 in experiment [1] and in experiment [2] was more than 10 µM in each case.

In the case of `Cc1c(Nc2ccc(OC(F)(F)F)cc2)ncnc1-c1ccc(C(=O)NCCO)cc1`, the values for the IC50 in experiment [1] and in experiment [2] were more than 10 µM and 4.67 µM, respectively.

For `CC(C)Cn1cc(-c2cc(Nc3ccc(OC(F)(F)F)cc3)ncn2)cn1`, the results for the IC50 in experiment [1] and in experiment [2] were more than 10 µM and 1.55 µM, respectively.

With `FC(F)(F)Oc1ccc(Nc2ncnc3sccc23)cc1`, the IC50 in experiment [1] and in experiment [2] was more than 10 µM each time.

For the compound `CNS(=O)(=O)c1ccc(-c2ncnc(Nc3ccc(OC(F)(F)F)cc3)c2C)cc1`, the IC50 in experiment [1] was 2.5 µM; in experiment [2], 2.13 µM.

In the case of `O=[N+]([O-])c1cccc(-c2cc(Nc3ccc(OC(F)(F)F)cc3)ncn2)c1`, the IC50 in experiment [1] and in experiment [2] was more than 10 µM throughout.

Consider `Cc1cc2c(Nc3ccc(OC(F)(F)F)cc3)ncnc2s1`, for which the IC50 in experiment [1] and in experiment [2] was more than 10 µM in each case.

Take `O=S(=O)(c1ccc(-c2cc(Nc3ccc(OC(F)(F)F)cc3)ncn2)cc1)N1CCCCC1`: the IC50 in experiment [1] is more than 10 µM; in experiment [2], 1.41 µM.

With `Cn1ncc2c(Nc3ccc(OC(F)(F)F)cc3)ncnc21`, the IC50 in experiment [1] and in experiment [3] was more than 10 µM throughout.

Turning to `Nc1cc(C2CC2)n(-c2cc(Nc3ccc(OC(F)(F)F)cc3)ncn2)n1`, the IC50 in experiment [1] and in experiment [2] was more than 10 µM in each case.

As to `O=C(c1cc2c(Nc3ccc(OC(F)(F)F)cc3)ncnc2s1)N1CCC[C@H]1CO`, the IC50 was 3.66 µM in experiment [1] and 1.21 µM in experiment [2].

For the compound `O=C(NCCO)c1cc2c(Nc3ccc(OC(F)(F)F)cc3)ncnc2s1` [N-(2-hydroxyethyl)-4-(4-(trifluoromethoxy)phenylamino)thieno[2,3-d]pyrimidine-6-carboxamide], the IC50 in experiment [1] and in experiment [2] was more than 10 µM each time.

Regarding `Cc1c(Nc2ccc(OC(F)(F)F)cc2)ncnc1-c1cnn(-c2ccccc2)c1C`, the IC50 came to 8.85 µM in experiment [1] and 5.24 µM in experiment [2].

Consider `FC(F)(F)Oc1ccc(Nc2cc(-c3cccc4sccc34)ncn2)cc1`, for which the values for the IC50 in experiment [1] and in experiment [2] were 3.06 µM and 3.74 µM, respectively.

As for `Cc1c(-c2cc(Nc3ccc(OC(F)(F)F)cc3)ncn2)cnn1-c1ccccc1`, the IC50 in experiment [1] is more than 10 µM; in experiment [2], 6.23 µM.

Regarding `CCN(CC)S(=O)(=O)c1ccc(-c2cc(Nc3ccc(OC(F)(F)F)cc3)ncn2)cc1`, the IC50 in experiment [1] was found to be 8.85 µM; in experiment [2], 3.88 µM.

For `O=c1cc(-c2cc(Nc3ccc(OC(F)(F)F)cc3)ncn2)cc[nH]1`, the IC50 in experiment [1] and in experiment [2] was more than 10 µM each time.

Take `COc1ccc(C(=O)Nc2ccc(-c3cc(Nc4ccc(OC(F)(F)F)cc4)ncn3)cc2)cc1`: the IC50 is 9.22 µM in experiment [1] and more than 10 µM in experiment [2].

On to `FC(F)(F)Oc1ccc(Nc2cc(-n3ccnc3Nc3ccc(OC(F)(F)F)cc3)ncn2)cc1`, for which the IC50 in experiment [1] and in experiment [2] was more than 10 µM throughout.

As to `CN1CCN(c2cc(-c3cc(Nc4ccc(OC(F)(F)F)cc4)ncn3)ccn2)CC1`, the figures for the IC50 in experiment [1] and in experiment [2] were 0.71 µM and 0.386 µM, respectively.

Take `Cc1nc(-c2cc(Nc3ccc(OC(F)(F)F)cc3)ncn2)cs1`: the IC50 in experiment [1] and in experiment [2] was more than 10 µM each time.

In the case of `FC(F)(F)Oc1ccc(Nc2cc(-n3ccnc3NCCN3CCOCC3)ncn2)cc1`, the IC50 in experiment [1] and in experiment [2] was more than 10 µM in each case.

Regarding `O=S(=O)(c1ccc(-c2cc(Nc3ccc(OC(F)(F)F)cc3)ncn2)cc1)N1CCOCC1`, the IC50 is more than 10 µM in experiment [1] and 2.63 µM in experiment [2].

For `CN1CCN(C(=O)c2cc3c(Nc4ccc(OC(F)(F)F)cc4)ncnc3s2)CC1`, the IC50 in experiment [1] worked out at 2.69 µM; in experiment [2], 1.25 µM.

Turning to `CS(=O)(=O)Nc1ccc(-c2cc(Nc3ccc(OC(F)(F)F)cc3)ncn2)cc1`, the IC50 worked out at 2.21 µM in experiment [1] and 0.6 µM in experiment [2].

Consider `COC(=O)c1cc2c(Nc3ccc(OC(F)(F)F)cc3)ncnc2s1`, for which the IC50 in experiment [1] and in experiment [2] was more than 10 µM throughout.

Regarding `Cc1c(Nc2ccc(OC(F)(F)F)cc2)ncnc1-c1cccc(C(N)=O)c1`, the IC50 in experiment [1] and in experiment [2] was more than 10 µM each time.

Regarding `O=C(O)c1cc2c(Nc3ccc(OC(F)(F)F)cc3)ncnc2s1`, the IC50 in experiment [1] and in experiment [2] was more than 10 µM throughout.

Regarding `CCNC(=O)c1cc2c(Nc3ccc(OC(F)(F)F)cc3)ncnc2s1`, the IC50 in experiment [1] and in experiment [2] was more than 10 µM in each case.

As for `FC(F)(F)Oc1ccc(Nc2cc(-c3cnn(Cc4ccncc4)c3)ncn2)cc1`, the IC50 in experiment [1] stood at 7.3 µM; in experiment [2], 4 µM.

On to `N#CCc1cccc(-c2cc(Nc3ccc(OC(F)(F)F)cc3)ncn2)c1`, for which the figures for the IC50 in experiment [1] and in experiment [2] were 8.82 µM and 3.39 µM, respectively.

In the case of `FC(F)(F)Oc1ccc(Nc2cc(-c3ccnc4[nH]ccc34)ncn2)cc1`, the IC50 is 6.85 µM in experiment [1] and more than 10 µM in experiment [2].
